Assay [1] relates to Escherichia coli strain (E.c.). Nature of the assay: In vitro bactericidal activity screening, endpoint titration. The conditions noted are these: last concentration giving greater than two-logs reduction in CFU vs. saline control.
Assay [2] concerns Fusobacterium nucleatum strain 1594 (F.n.). The assay is described as above. The note with it: last concentration giving greater than two-logs reduction in CFU vs. saline control.
Assay [3] relates to all bacteria tested in Table 9. Briefly: In vitro bactericidal activity screening, average across all bacteria. The note with it: average value across all bacteria. The class given is cell-based.
For assay [4], the system named is Burkholderia cepacia strain Toronto (B.c.). Nature of the assay: In vitro bactericidal activity screening, endpoint titration. The conditions noted are these: last concentration giving greater than two-logs reduction in CFU vs. saline control, 10^6 CFU/ml, 37° C.
In assay [5] the test system is Actinobacillus actinomycetemcomitans strain A7154 (A.a.). The assay is described as above. The conditions noted are these: last concentration giving greater than two-logs reduction in CFU vs. saline control.
The subject of another assay is Pseudomonas Xen5. Briefly: Antibacterial activity, microtiter dilution method. Type of assay: cell-based. The note with it: 24 hours, 37 degrees.
The test system of a further assay is E. coli. The note with it: 24 h.
Assay [6] has as its system bacterial isolates of Table 7 (A. baumanii, E. coli, E. cloaca, Pseudomonas, Staphylococcus).
Protocol: Briefly, cells were grown overnight in media specified for each strain, and were diluted in the same media. Serial dilutions of the peptides were added to microtiter plates in a volume of 50 ul, followed by the addition of 50 ul of bacteria or fungi, 5×10^5 CFU/ml. Plates were incubated at 37 degrees for 24 hours and the Minimum Inhibitory Concentrations (MICs) were determined as the lowest peptide concentration that inhibited 50% of bacterial growth.
Another assay concerns A. baumanii. The conditions noted are these: 24 h.
Another assay concerns E. cloaca. The note with it: 24 h.
For a further assay, the system named is C. krusei. The note with it: 24 h.
Assay [7] has as its system fungal isolates of Table 8 (C. albicans, C. krusei, C. tropicalis).
Protocol: Measurement of antimicrobial and anti-fungal activity was determined by a standard micrometer dilution method. Briefly, cells were grown overnight in media specified for each strain, and were diluted in the same media. Serial dilutions of the peptides were added to microtiter plates in a volume of 50 ul, followed by the addition of 50 ul of bacteria or fungi, 5×10^5 CFU/ml. Plates were incubated at 37 degrees for 24 hours and the Minimum Inhibitory Concentrations (MICs) were determined as the lowest peptide concentration that inhibited 50% of bacterial growth.
In a further assay the test system is C. albicans. The note with it: 24 h.
A further assay concerns C. tropicalis. The conditions noted are these: 24 h.
A further assay relates to B. thailandensis. Nature of the assay: microbe, parasite or virus in culture. The conditions noted are these: Burkholderia thailandensis, 3 h.
Assay [8] relates to Pseudomonas aeruginosa strain (P.a.). Briefly: In vitro bactericidal activity screening, endpoint titration. The conditions noted are these: last concentration giving greater than two-logs reduction in CFU vs. saline control.

Where a SMILES comes first, the peptide text is derived from it. [ ]: non-standard residue; d: D form. Orn = NCCC[C@H](N)C(=O)O

As for FARKFLKKFKRFAKKFVRFAFAF [SEQ ID NO: 6], the “Two-log Reduction Concentration” value in assay [1] turned out to be 0.63 μM; in assay [2] it was 3.75 μM; in [4], 1.25 μM; in [5] it was 0.40 μM. In addition, in assay [3], the “Two-log Reduction Concentration Ave.” value turned out to be 1.67 μM.

On to `CC[C@H](C)[C@H](NC(=O)[C@H](CCCNC(=N)N)NC(=O)[C@H](C)NC(=O)[C@H](CC(C)C)NC(=O)[C@@H](N)CCCNC(=N)N)C(=O)N[C@H](C(=O)NCC(=O)NCC(=O)N[C@@H](Cc1ccccc1)C(=O)N[C@@H](C)C(=O)N[C@@H](CCCN)C(=O)N[C@@H](CCCN)C(=O)N[C@@H](Cc1ccccc1)C(=O)N[C@@H](C)C(=O)N[C@@H](CCCN)C(=O)N[C@@H](CCCN)C(=O)N[C@@H](Cc1ccccc1)C(=O)N[C@@H](CCCN)C(=O)N[C@@H](CCCN)C(=O)N[C@@H](Cc1ccccc1)C(=O)N[C@@H](C)C(=O)N[C@@H](CCCN)C(=O)N[C@@H](CCCN)C(=O)N[C@@H](Cc1ccccc1)C(=O)N[C@@H](C)C(=O)N[C@@H](CCCN)C(=O)N[C@@H](Cc1ccccc1)C(=O)N[C@@H](C)C(=O)N[C@@H](Cc1ccccc1)C(=O)N[C@@H](C)C(=O)N[C@@H](Cc1ccccc1)C(=O)O)C(C)C` [RP500, RLARIVGGFAOOFAOOFOOFAOOFAOFAFAF] (H-RLARIVGGFA[Orn][Orn]FA[Orn][Orn]F[Orn][Orn]FA[Orn][Orn]FA[Orn]FAFAF-OH; N-terminus and C-terminus assumed), for which the concentration for half-maximal inhibition (IC50) (in general, the concentration at which inhibition is half-maximal) in the assay on Pseudomonas Xen5 is 0.5 µM; in the assay with E. coli, 3.8 µM; in [6] it was 5.3 µM; in the assay with A. baumanii, 7.6 µM; in the assay with E. cloaca, 7.6 µM.

For `CC[C@H](C)[C@H](NC(=O)CNC(=O)CNC(=O)[C@H](CS)NC(=O)[C@H](Cc1ccccc1)NC(=O)[C@H](CCCN)NC(=O)CNC(=O)[C@H](CC(C)C)NC(=O)[C@H](CS)NC(=O)CNC(=O)CNC(=O)[C@H](CC(C)C)NC(=O)[C@H](CCCN)NC(=O)[C@H](C)NC(=O)[C@H](CCCN)NC(=O)[C@@H](NC(=O)[C@H](CCCN)NC(=O)[C@@H](N)Cc1ccccc1)[C@@H](C)CC)C(=O)N[C@@H](CCCN)C(=O)N[C@@H](C)C(=O)N[C@@H](CCCN)C(=O)N[C@@H](CC(C)C)C(=O)N[C@@H](CCCN)C(=O)N[C@@H](Cc1ccccc1)C(=O)O` [RP504, FOIOAOLGGCLGOFCGGIOAOLOF] (H-F[Orn]I[Orn]A[Orn]LGGCLG[Orn]FCGGI[Orn]A[Orn]L[Orn]F-OH; N-terminus and C-terminus assumed), the half-maximal inhibitory concentration (IC50) in the assay with C. krusei worked out at 2.7 µM; in [7], 23 µM; in the assay with E. coli, 10.8 µM; in [6], 17.6 µM; with C. albicans, 43.3 µM.

On to `CSCC[C@H](NC(=O)[C@H](Cc1c[nH]c2ccccc12)NC(=O)[C@H](CC(C)C)NC(=O)[C@H](C)N)C(=O)N[C@H](C(=O)N[C@@H](CC(C)C)C(=O)N[C@@H](CCCN)C(=O)N[C@@H](CCCN)C(=O)N[C@@H](CCCN)C(=O)N[C@H](C(=O)N[C@@H](CC(C)C)C(=O)N[C@@H](CCCN)C(=O)N[C@@H](C)C(=O)N[C@@H](CCCN)C(=O)N[C@@H](C)C(=O)N[C@@H](CCCN)C(=O)N[C@@H](C)C(=O)N[C@@H](CC(C)C)C(=O)N[C@@H](CC(N)=O)C(=O)N[C@@H](C)C(=O)N[C@H](C(=O)N[C@@H](CC(C)C)C(=O)N[C@H](C(=O)NCC(=O)N[C@@H](C)C(=O)N[C@@H](CC(N)=O)C(=O)N[C@@H](C)C(=O)O)C(C)C)C(C)C)C(C)C)[C@@H](C)O` [RP507, ALWMTLOOOVLOAOAOALNAVLVGANA] (H-ALWMTL[Orn][Orn][Orn]VL[Orn]A[Orn]A[Orn]ALNAVLVGANA-OH; N-terminus and C-terminus assumed), for which the IC50 with C. krusei was found to be 20 µM; in the assay on C. tropicalis, 40 µM; in [7] it was 43.3 µM.

As for `CC(C)(O/N=C(\C(=O)N[C@@H]1C(=O)N2C(C(=O)[O-])=C(C[n+]3ccccc3)CS[C@H]12)c1csc(N)n1)C(=O)O` [Ceftazidime], the half-maximal effective concentration (EC50) (as a rule, the midpoint of the concentration-response curve) in the assay with B. thailandensis was 39.1 µM.

On to `CC[C@H](C)[C@H](NC(=O)[C@H](C)NC(=O)[C@H](CCCN)NC(=O)[C@H](CCCN)NC(=O)[C@H](CCCN)NC(=O)[C@@H](NC(=O)[C@H](CCCN)NC(=O)[C@H](CC(C)C)NC(=O)[C@H](CCCN)NC(=O)[C@H](CCCN)NC(=O)[C@H](CCCN)NC(=O)[C@H](CCCN)NC(=O)[C@H](C)NC(=O)[C@H](CCCN)NC(=O)[C@H](CO)NC(=O)[C@H](CC(C)C)NC(=O)[C@@H](NC(=O)[C@H](CCCCN)NC(=O)[C@H](CC(C)C)NC(=O)[C@H](CC(C)C)NC(=O)[C@H](CO)NC(=O)[C@H](CCCN)NC(=O)[C@H](CC(C)C)NC(=O)[C@@H](N)CCCN)[C@@H](C)O)[C@@H](C)O)C(=O)N[C@@H](CO)C(=O)N[C@@H](CCCN)C(=O)O` [RP505, OLOSLLKTLSOAOOOOLOTOOOAISO] (H-[Orn]L[Orn]SLLKTLS[Orn]A[Orn][Orn][Orn][Orn]L[Orn]T[Orn][Orn][Orn]AIS[Orn]-OH; N-terminus and C-terminus assumed), for which the results for the 50% inhibitory concentration (IC50) (in the assay on C. krusei; in the assay on C. tropicalis; in assay [7]) were 17.5 µM, 8.8 µM and 13.2 µM, respectively.

For the compound “FAFAFKAFKKAFKKFKKAFKKAFGPGRFAKKFAKKFKKFAKKFAKFAFAF [RP-433]”, the “Two-log Reduction Concentration” value in [1] was 0.63 μM; in [2], 1.25 μM; in assay [4] it was 0.12 μM; in assay [8], 0.90 μM; in assay [5], 0.10 μM. For the same compound, the “Two-log Reduction Concentration Ave.” value in assay [3] is listed as 0.46 μM.

The values above are taken from patent publication US10017542B2, “Antimicrobial peptides and methods of use thereof” (priority 2015, dated 2018).
